Measured values published in ChEMBL document CHEMBL4507291 (2021).

Assays:
[1] = target: Histamine H3 receptor (Homo sapiens) (UniProt Q9Y5N1); details: Compound concentration 10.0 uM
[2] = target: T1, Aurora kinase C (Homo sapiens) (UniProt Q9UQB9); assay: AURKC (Aurora C) Kinase screen; details: Compound concentration 1.0 uM
T1 sequence (whole entry): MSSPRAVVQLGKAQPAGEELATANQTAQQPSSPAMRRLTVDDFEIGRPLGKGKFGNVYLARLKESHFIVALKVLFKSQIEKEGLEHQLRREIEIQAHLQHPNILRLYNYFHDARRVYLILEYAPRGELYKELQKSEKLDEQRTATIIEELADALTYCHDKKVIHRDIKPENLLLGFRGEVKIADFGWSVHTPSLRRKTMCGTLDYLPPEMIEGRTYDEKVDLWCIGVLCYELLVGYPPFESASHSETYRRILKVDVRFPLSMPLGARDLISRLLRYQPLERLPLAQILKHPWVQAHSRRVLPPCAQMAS

[3] = target: Insulin receptor (Homo sapiens) (UniProt P06213); assay: Protein Tyrosine Kinase, Insulin Receptor Eurofins-Panlabs enzyme assay; parameters: substrate with concentration; details: Compound concentration 10.0 uM
Insulin receptor (Homo sapiens), sequence (P06213 28-758 limits assumed): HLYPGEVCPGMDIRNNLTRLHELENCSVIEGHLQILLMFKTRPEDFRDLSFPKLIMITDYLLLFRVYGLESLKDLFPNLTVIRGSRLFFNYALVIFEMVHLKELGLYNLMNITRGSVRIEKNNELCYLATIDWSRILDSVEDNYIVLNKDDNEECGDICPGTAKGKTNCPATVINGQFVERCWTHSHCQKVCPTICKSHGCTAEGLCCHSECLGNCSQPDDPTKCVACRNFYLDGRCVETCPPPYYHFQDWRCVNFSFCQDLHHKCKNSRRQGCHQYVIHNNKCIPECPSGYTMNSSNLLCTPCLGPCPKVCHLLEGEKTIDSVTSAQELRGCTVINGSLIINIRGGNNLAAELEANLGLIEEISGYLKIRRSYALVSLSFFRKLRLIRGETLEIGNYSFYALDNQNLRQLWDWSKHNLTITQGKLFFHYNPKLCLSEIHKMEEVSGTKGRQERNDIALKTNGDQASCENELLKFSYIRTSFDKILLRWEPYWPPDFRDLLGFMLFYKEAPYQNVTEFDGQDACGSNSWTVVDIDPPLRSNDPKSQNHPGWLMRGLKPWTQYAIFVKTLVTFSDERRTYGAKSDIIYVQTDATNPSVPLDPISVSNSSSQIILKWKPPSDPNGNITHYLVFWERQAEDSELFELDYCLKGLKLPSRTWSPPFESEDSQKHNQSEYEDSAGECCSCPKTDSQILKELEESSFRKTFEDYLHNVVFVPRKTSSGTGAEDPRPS
Insulin receptor (Homo sapiens), sequence (P06213 763-1382 limits assumed): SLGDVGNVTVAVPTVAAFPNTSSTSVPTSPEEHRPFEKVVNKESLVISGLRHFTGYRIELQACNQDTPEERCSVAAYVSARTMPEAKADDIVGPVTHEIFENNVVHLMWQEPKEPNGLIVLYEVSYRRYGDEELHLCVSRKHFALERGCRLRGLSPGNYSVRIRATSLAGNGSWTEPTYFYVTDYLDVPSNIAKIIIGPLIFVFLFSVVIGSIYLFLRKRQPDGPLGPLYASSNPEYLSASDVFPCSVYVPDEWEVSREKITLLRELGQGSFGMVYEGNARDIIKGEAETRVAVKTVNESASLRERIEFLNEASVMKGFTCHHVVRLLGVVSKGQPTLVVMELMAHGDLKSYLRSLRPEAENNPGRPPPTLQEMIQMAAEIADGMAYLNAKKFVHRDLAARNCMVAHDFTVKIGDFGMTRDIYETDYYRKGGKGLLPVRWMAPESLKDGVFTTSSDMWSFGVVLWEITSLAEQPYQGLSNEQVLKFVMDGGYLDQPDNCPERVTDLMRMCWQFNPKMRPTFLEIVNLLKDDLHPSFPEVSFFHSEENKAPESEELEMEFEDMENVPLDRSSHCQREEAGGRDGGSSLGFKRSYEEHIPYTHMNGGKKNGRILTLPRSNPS

[4] = target: T2, Serine/threonine-protein kinase D1 (Homo sapiens) (UniProt Q15139); assay: PRKD1 (PKC mu) Kinase screen; details: Compound concentration 1.0 uM
T2 sequence (whole entry): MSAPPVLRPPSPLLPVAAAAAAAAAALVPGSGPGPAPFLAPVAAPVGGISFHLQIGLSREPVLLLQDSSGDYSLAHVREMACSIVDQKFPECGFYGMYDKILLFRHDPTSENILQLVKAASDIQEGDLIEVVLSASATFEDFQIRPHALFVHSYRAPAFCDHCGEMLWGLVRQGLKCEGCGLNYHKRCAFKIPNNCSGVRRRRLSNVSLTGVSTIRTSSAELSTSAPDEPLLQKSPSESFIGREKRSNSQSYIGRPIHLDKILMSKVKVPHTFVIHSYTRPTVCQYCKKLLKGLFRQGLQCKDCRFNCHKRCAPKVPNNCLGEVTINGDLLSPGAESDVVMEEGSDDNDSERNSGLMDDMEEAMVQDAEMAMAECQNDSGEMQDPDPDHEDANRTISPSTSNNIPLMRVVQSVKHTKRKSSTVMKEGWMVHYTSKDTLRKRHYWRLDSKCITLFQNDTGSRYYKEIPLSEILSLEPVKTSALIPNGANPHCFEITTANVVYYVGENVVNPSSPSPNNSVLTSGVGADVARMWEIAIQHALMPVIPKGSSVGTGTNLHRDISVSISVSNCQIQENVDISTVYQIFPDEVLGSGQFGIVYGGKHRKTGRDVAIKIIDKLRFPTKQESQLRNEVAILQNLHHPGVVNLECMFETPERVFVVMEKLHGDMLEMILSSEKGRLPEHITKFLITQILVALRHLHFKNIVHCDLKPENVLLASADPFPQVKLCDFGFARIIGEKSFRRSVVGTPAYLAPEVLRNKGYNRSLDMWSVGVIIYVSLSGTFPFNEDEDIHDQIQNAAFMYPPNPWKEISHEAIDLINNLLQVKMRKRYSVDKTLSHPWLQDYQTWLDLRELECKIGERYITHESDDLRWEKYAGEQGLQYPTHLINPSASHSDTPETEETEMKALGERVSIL

[5] = target: SRSF protein kinase 2 (Homo sapiens) (UniProt P78362); assay: SRPK2 Kinase screen; details: Compound concentration 1.0 uM
SRSF protein kinase 2 (Homo sapiens), sequence (P78362 whole entry, looked up): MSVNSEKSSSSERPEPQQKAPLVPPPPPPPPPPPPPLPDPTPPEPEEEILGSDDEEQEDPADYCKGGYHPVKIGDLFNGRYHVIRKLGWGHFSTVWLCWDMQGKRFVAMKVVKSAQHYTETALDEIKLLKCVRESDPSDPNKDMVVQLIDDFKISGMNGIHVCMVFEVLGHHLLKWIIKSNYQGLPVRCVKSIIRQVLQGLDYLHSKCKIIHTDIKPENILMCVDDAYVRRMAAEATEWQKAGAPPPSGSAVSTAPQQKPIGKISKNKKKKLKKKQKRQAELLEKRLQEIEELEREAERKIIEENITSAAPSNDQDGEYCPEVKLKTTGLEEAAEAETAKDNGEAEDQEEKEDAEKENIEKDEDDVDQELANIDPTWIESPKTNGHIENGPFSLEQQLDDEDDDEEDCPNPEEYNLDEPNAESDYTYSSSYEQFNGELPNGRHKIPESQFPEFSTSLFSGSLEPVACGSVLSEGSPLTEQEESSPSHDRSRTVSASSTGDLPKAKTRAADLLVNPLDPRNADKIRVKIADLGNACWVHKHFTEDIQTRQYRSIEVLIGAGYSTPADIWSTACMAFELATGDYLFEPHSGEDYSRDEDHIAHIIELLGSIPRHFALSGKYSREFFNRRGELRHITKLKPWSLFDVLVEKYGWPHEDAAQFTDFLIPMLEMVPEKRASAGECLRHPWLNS

[6] = target: Tyrosine-protein kinase JAK1 (Homo sapiens) (UniProt P23458); assay: JAK1 Kinase screen; details: Compound concentration 1.0 uM
Tyrosine-protein kinase JAK1 (Homo sapiens), sequence (P23458 whole entry): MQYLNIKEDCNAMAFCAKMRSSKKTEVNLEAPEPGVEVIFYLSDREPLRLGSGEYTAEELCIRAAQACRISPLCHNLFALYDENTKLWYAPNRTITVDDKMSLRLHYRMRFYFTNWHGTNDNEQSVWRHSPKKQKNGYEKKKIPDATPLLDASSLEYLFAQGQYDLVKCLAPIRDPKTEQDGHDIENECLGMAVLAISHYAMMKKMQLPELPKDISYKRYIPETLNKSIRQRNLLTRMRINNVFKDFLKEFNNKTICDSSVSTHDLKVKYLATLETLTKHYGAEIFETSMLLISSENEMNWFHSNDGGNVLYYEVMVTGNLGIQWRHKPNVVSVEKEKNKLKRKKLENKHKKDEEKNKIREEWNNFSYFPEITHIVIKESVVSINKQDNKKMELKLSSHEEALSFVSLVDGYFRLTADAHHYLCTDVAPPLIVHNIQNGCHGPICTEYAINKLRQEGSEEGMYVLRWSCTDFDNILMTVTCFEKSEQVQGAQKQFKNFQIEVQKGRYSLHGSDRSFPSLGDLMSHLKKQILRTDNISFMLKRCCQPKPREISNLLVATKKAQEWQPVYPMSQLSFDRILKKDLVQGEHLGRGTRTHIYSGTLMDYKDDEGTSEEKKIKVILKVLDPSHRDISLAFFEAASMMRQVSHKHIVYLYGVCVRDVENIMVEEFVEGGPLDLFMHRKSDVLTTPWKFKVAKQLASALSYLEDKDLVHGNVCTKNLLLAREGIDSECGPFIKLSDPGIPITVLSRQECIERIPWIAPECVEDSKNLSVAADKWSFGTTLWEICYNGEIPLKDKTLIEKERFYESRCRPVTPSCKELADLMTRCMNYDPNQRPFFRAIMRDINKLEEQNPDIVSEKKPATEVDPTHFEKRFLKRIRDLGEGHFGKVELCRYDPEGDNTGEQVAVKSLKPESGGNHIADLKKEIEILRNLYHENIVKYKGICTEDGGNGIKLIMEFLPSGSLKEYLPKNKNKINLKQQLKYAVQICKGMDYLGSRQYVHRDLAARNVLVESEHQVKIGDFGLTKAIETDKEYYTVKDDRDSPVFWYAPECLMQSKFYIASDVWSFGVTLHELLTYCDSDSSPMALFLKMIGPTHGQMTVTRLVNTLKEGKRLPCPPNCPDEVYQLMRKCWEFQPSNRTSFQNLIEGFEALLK

[7] = target: T3, Mitogen-activated protein kinase 12 (Homo sapiens) (UniProt P53778); assay: MAPK12 (p38 gamma) Kinase screen; details: Compound concentration 1.0 uM
T3 sequence (whole entry): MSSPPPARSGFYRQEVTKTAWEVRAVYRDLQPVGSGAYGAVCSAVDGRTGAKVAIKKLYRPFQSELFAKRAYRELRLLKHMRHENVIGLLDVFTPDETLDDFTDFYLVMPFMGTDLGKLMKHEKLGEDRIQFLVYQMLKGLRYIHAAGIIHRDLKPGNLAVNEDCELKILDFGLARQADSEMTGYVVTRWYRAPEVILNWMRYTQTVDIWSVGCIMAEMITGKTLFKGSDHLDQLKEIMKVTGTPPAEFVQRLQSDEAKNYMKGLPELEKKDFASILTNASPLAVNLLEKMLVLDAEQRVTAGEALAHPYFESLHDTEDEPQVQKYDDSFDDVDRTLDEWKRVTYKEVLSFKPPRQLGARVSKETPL

[8] = target: T4, Serine/threonine-protein kinase DCLK2 (Homo sapiens) (UniProt Q8N568); assay: DCAMKL2 (DCK2) Kinase screen; details: Compound concentration 1.0 uM
T4 sequence (whole entry): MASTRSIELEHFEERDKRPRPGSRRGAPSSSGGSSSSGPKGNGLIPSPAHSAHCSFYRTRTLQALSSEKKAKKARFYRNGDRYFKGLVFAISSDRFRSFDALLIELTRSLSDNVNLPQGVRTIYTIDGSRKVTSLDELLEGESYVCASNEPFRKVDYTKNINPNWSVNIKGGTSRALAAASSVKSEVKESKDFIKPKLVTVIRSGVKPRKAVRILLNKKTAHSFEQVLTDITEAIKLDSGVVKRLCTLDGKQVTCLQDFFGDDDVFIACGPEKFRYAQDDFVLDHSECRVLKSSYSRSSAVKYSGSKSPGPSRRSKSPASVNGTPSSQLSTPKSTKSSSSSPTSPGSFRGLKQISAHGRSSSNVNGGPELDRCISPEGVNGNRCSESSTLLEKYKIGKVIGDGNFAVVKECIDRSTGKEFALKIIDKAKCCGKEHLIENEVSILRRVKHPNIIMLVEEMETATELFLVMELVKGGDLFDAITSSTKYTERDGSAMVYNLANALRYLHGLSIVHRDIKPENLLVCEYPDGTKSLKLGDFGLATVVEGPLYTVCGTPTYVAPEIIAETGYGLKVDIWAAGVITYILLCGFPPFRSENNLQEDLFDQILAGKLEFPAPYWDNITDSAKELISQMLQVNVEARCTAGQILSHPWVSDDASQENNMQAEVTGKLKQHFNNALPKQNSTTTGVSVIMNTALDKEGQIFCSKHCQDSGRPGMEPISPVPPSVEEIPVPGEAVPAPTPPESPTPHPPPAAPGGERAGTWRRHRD

[9] = target: Casein kinase II subunit alpha' (Homo sapiens) (UniProt P19784); assay: CSNK2A2 (CK2 alpha 2) Kinase screen; details: Compound concentration 1.0 uM
Casein kinase II subunit alpha' (Homo sapiens), sequence (P19784 whole entry, looked up): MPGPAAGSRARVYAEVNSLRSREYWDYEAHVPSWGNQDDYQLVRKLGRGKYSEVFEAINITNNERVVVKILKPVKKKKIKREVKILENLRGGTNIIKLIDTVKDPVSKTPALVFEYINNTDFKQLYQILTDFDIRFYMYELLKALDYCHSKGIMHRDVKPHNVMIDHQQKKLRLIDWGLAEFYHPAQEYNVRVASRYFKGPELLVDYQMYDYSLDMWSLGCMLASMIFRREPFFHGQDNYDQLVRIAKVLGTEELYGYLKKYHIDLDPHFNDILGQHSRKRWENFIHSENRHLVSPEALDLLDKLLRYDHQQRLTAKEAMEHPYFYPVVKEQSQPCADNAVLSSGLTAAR

[10] = target: Mitogen-activated protein kinase kinase kinase 20 (Homo sapiens) (UniProt Q9NYL2); assay: ZAK Kinase screen; details: Compound concentration 1.0 uM
Mitogen-activated protein kinase kinase kinase 20 (Homo sapiens), sequence (Q9NYL2 2-800 limits assumed): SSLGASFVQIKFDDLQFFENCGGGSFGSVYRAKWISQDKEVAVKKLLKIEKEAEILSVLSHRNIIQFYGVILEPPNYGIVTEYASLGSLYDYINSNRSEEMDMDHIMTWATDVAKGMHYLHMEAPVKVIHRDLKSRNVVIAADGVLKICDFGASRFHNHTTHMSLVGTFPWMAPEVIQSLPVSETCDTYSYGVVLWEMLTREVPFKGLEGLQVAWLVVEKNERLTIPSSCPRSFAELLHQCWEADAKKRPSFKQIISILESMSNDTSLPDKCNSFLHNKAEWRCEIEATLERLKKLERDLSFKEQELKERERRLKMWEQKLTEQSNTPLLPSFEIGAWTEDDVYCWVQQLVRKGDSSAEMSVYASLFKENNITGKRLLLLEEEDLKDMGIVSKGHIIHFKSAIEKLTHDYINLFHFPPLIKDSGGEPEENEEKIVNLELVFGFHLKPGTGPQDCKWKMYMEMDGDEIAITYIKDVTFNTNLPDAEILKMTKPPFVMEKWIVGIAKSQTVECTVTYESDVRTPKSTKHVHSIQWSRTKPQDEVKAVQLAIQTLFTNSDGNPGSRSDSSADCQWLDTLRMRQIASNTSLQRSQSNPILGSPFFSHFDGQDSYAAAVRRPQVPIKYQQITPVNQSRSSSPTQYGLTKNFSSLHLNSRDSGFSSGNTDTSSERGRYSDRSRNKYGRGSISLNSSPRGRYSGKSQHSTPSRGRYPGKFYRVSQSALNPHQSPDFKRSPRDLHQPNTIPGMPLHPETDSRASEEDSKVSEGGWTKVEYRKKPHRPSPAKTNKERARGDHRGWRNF

Measured: inhibition

Histamine H3 receptor (Homo sapiens), sequence (Q9Y5N1 whole entry): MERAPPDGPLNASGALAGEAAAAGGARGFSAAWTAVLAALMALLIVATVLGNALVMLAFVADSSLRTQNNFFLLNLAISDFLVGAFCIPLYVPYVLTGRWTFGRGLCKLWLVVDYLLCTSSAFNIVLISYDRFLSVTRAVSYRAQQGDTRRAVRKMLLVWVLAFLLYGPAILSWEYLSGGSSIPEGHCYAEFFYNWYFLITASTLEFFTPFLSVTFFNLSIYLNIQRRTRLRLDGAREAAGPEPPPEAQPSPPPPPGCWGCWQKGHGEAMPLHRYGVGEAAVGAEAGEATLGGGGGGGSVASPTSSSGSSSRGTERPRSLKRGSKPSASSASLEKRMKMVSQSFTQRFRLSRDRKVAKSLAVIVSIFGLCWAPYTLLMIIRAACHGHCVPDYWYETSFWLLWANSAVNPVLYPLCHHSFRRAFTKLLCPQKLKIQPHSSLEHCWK

C[C@@H]1CN(c2cc(-c3nn(C)c4ccc(OC5(C)CC5)cc34)ncn2)C[C@H](C)O1 [MLi-2-NC]
inactive: [1] -6.25%

C[C@@H]1CN(c2cc(-c3n[nH]c4ccc(OC5(C)CC5)cc34)ncn2)C[C@H](C)O1 [MLi-2]
inactive: [2] 1.85% | [3] 9% | [4] 13.2% | [5] 0.838% | [6] -2.46% | [7] 1% | [8] 5.61% | [9] 10.4% | [10] 4.32%
